Holding throughout (test): relative viability (nuclei count vs DMSO), 5 days (fraction); higher = more cells survive
Compound in assay [1]: CS(=O)(=O)c1ccc(C(=O)Nc2ccc(Cl)c(-c3ccccn3)c2)c(Cl)c1 [Vismodegib] + Nc1nc2[nH]cc(CCc3ccc(C(=O)N[C@@H](CCC(=O)O)C(=O)O)cc3)c2c(=O)[nH]1 [Pemetrexed] (partner 0.2 µM)
The method in brief:
(§1)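 Values are medians from duplicate plates. Each reflects relative viability, defined as the nuclei count of treated wells over that of vehicle wells. Lung cancer cell lines in 1536-well plates were pin-tool dosed one day after seeding with one drug alone or with a fixed anchor-drug dose plus five library-drug doses (not always all listed) in √10 steps, then fixed, stained and imaged at 4× after 5 days.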

Compound in assay [2]: CS(=O)(=O)c1ccc(-c2cnc(N)c(C(=O)Nc3ccccc3)n2)cc1 [VE-821] + Cc1nc(NC(=O)N2CCC[C@H]2C(N)=O)sc1-c1ccnc(C(C)(C)C(F)(F)F)c1 [Alpelisib] (partner 2 µM)
The method in brief:
as §1

Compound in assay [3]: N#CC[C@H](C1CCCC1)n1cc(-c2ncnc3[nH]ccc23)cn1 [Ruxolitinib] + CC1(C)CCC(c2ccc(Cl)cc2)=C(CN2CCN(c3ccc(C(=O)NS(=O)(=O)c4ccc(N[C@H](CCN5CCOCC5)CSc5ccccc5)c(S(=O)(=O)C(F)(F)F)c4)cc3)CC2)C1 [Navitoclax] (partner 0.5 µM)
An outline of the steps: as §1

Compound in assay [4]: CS(=O)(=O)c1ccc(C(=O)Nc2ccc(Cl)c(-c3ccccn3)c2)c(Cl)c1 [Vismodegib] + C[C@@H](Oc1cc(-c2cnn(C3CCNCC3)c2)cnc1N)c1c(Cl)ccc(F)c1Cl [Crizotinib] (partner 1 µM)
An outline of the steps: as §1

On to UMC-11, for which the relative viability amounted to 0.61 in assay [1] (first compound 0.08 µM); 0.807 in assay [1] (first compound 0.253 µM); 0.768 in assay [1] (first compound 0.8 µM); 0.739 in assay [1] (first compound 2.53 µM); 0.868 in assay [1] (first compound 8 µM); 1.23 in assay [2] (first compound 0.08 µM). Besides, the relative viability came out at 0.946 in assay [2] (first compound 0.253 µM); 1.03 in assay [2] (first compound 0.8 µM); 0.935 in assay [2] (first compound 2.53 µM); 0.437 in assay [2] (first compound 8 µM); 0.3 in assay [3] (first compound 0.08 µM); 0.302 in assay [3] (first compound 0.253 µM). Further, the relative viability in assay [3] (first compound 0.8 µM) was found to be 0.388; in assay [3] (first compound 2.53 µM) it was 0.352; in assay [3] (first compound 8 µM) it was 0.288; in assay [4] (first compound 0.08 µM), 0.57; in assay [4] (first compound 0.253 µM), 0.56; in assay [4] (first compound 0.8 µM), 0.723. Moreover, the values for the relative viability in assay [4] (first compound 2.53 µM) and in assay [4] (first compound 8 µM) were 0.606 and 0.652, respectively.

The values above are taken from the supplement of paper PMC10307832.
